Assay [1] relates to MCF7 cells. As to the kind of experiment: CS-BLI cell viability assay, MCF7. Format: cell-based.
The target of assay [2] is GB1-eIF4E (Homo sapiens, UniProt P06730). As to the kind of experiment: Solution NMR titration. To be noted: 15N-labelled GB1-eIF4E 100 μM, compound 50, 100 and 300 μM.
In assay [3] the target is eIF4E (Homo sapiens, UniProt P06730). As to the kind of experiment: eIF4E degradation in HEK293T cells by immunoblotting. To be noted: 0.1-10 μM for 24 h, and 1 μM for 0.5 h to 24 h. Format: cell-based. A general note: A western blot detects proteins with antibodies after separation by electrophoresis.
eIF4E, sequence (P06730 whole entry): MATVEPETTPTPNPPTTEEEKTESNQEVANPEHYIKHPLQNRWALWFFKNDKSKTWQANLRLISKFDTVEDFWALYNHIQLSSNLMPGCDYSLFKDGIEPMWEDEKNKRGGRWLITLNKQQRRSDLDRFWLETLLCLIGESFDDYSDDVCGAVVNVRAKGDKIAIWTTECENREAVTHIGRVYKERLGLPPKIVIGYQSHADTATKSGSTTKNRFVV
Assay [4] deals with Cereblon (CRBN) (Homo sapiens, UniProt Q96SW2). As to the kind of experiment: Cellular Cereblon engagement assay. Format: cell-based.
Cereblon (CRBN), sequence (Q96SW2 whole entry): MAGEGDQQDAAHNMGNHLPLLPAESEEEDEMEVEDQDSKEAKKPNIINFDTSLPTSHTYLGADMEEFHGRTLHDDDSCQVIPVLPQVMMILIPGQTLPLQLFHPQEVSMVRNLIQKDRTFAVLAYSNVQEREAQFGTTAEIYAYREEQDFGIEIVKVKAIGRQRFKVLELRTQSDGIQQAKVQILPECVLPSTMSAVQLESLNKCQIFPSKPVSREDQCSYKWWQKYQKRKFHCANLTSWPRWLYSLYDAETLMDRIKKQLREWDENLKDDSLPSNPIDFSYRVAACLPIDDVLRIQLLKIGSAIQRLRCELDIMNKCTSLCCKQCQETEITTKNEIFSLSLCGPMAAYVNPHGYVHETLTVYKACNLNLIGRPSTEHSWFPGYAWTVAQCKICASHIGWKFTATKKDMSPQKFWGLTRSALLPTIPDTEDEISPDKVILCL
The subject of assay [5] is Kelly cells proteome. As to the kind of experiment: Global quantitative proteomics in Kelly cells. Format: cell-based, human. To be noted: 1 μM, 5 hours, relative to DMSO.
The target of assay [6] is eIF4E (GST-eIF4E) / fluorescein-labelled eIF4G peptide (Homo sapiens, UniProt P06730). As to the kind of experiment: Fluorescence polarization assay for displacement of eIF4G peptide from eIF4E. Format: binding. To be noted: three concentrations: 33, 100 and 300 μM. In general terms: Polarisation of emitted light reports the rotation of a fluorescent probe.
eIF4E (GST-eIF4E) / fluorescein-labelled eIF4G peptide, sequence (P06730 whole entry): as the sequence (P06730 whole entry) above

GB1-eIF4E, sequence (P06730 whole entry): as above

`O=C(O)C(Cc1ccccc1[N+](=O)[O-])=NNc1nc(-c2ccc(Cl)c(Cl)c2)cs1` [4EGI-1, reference compound]: the “decrease in viability (IC50) at 72 h as compared to 24 h” value in assay [1] came to 2 fold. As to `C/C(=N\Nc1nc(-c2ccc(-c3ccccc3)cc2)cs1)C(=O)NCCNc1cccc2c1C(=O)N(C1CCC(=O)NC1=O)C2=O` (centres unmarked) [d4E-4], the “chemical shift perturbations (CSPs) on titration” value in assay [2] was “Significant CSPs were observed in both cases at the binding interface”. Also, the “degradation of eIF4E by immunoblotting” value in assay [3] is listed as “neither experiment showed significant degradation of eIF4E”. As to `O=C1CCC(N2C(=O)c3cccc(NCCCCNC(=O)/C(=N\Nc4nc(-c5ccc(-c6ccccc6)cc5)cs4)c4ccccc4[N+](=O)[O-])c3C2=O)C(=O)N1` (centres unmarked) [d4E-3], in assay [4], the “fold less active than d4E-2 in cellular CRBN engagement” value is reported as “approximately 8 fold”. Take `C/C(=N\Nc1nc(-c2ccc(-c3ccccc3)cc2)cs1)C(=O)NCCCCNc1cccc2c1C(=O)N(C1CCC(=O)NC1=O)C2=O` (centres unmarked) [d4E-2]: in assay [5], the “change in protein expression, IMiD neo-substrates” value was “downregulation of C2H2 zinc finger targets, SALL4, ZNF692 and ZNF827”.

Regarding `C/C(=N\Nc1nc(-c2ccc(Cl)c(Cl)c2)c(CC(=O)NCCNc2cccc3c2C(=O)N(C2CCC(=O)NC2=O)C3=O)s1)C(=O)OCOC(=O)C(C)(C)C` (centres unmarked) [d4E-6], the “degradation of eIF4E by immunoblotting” value in assay [3] is “neither experiment showed significant degradation of eIF4E”. As for `O=C(O)/C(Cc1ccccc1[N+](=O)[O-])=N\Nc1nc(-c2ccc(-c3ccccc3)cc2)cs1` [i4EG-BiP], the “decrease in viability (IC50) at 72 h as compared to 24 h” value in assay [1] is given as “more than 3 fold”. As to `O=C(COc1cccc2c1C(=O)N(C1CCC(=O)NC1=O)C2=O)NCCCCNC(=O)Cc1sc(N/N=C(\Cc2ccccc2[N+](=O)[O-])C(=O)O)nc1-c1ccc(Cl)c(Cl)c1` (centres unmarked) [d4E-1], the “displacement of the 4G peptide compared with 4EGI-1” value in assay [6] is listed as “displaced the 4G peptide in a similar manner”.

The values are drawn from PMC8846605 (European journal of medicinal chemistry, 2021).
